Patent publication US8993309B2, “Predictive marker for topoisomerase I inhibitors” (Boston Medical Center Corporation, priority 2008, dated 2015)

Columns and labels:
HIV-1 = settings: acute and chronic infections, in vitro; cited from earlier work
topoI [1] = molecular target: T1, topoI (Mus musculus, UniProt Q04750); experiment: topoI down-regulation in response to CPT in DNA-PK deficient and efficient cells (anti-topoI immunoblot); format: cell-based
T1 construct: endogenous in cells; host or cells: ScH8 (DNA-PK +/+) and ScSv3 (DNA-PK -/-) mouse embryo fibroblasts
T1 sequence (Q04750 1-767): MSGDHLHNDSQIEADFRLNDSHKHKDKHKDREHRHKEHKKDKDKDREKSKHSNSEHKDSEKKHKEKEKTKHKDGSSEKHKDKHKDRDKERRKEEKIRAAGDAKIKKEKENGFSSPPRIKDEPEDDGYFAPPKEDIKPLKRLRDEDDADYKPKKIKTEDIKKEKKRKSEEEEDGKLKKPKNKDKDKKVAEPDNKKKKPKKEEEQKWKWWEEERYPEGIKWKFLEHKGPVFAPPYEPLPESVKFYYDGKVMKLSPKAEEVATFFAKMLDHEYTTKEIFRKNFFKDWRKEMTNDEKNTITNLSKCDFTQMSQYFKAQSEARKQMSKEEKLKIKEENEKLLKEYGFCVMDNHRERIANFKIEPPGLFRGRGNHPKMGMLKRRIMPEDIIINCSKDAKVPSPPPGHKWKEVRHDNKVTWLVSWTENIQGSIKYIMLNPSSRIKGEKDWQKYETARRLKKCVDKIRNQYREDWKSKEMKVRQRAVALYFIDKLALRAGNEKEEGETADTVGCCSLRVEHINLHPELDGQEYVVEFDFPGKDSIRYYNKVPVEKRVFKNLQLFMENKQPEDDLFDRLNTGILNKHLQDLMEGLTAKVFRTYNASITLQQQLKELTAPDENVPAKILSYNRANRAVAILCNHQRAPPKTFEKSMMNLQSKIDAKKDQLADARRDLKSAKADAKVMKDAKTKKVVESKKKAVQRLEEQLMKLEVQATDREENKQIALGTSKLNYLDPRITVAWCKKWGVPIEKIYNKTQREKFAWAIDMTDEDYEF
Experimental: (§1) Protein levels in FIG. 8A were determined by immuno blot analysis of cell lysate with anti-βactin.
(§2) Tissue Culture: Human cervical carcinoma (HeLa) cells, MCF-7 breast cancer cells, BT-474 breast cancer cells and Mouse embryo fibroblasts (MEF) reconstituted for stable expression of DNA-PK (ScH8) and […] MEF (ScSv3, DNA-PK −/−) were grown and maintained in Dulbecco's Modification of Eagle's Medium containing 10% fetal bovine serum, 2 mM L-Glutamine 100 units/mL of Streptomycin and 100 units/mL of Penicillin.
Cell Synchronization and Drug Treatment. MEF cells were phase-synchronized by serum starvation. Cells were incubated for 30 hours in Dulbecco's Modification of Eagle Medium containing 0.1% fetal bovine serum followed by 16 hour incubation in Medium containing 10% fetal bovine serum. Topo I inhibitor treatment was performed using a 25 μM concentration of Irinotecan (Sigma). Transient transfection of cell lines for BRCA1 and BARD1 expression was performed using the Geneporter 2 transfection kit (GenLantis).
Immunoprecipitation and immunoblot analysis: Cell lysates were prepared for immunoprecipitation and soluble proteins were incubated with anti-BRCA1 or anti-topoI (Topogen, Inc.). The immunoprecipitates were subjected to immunoblotting with anti-BRCA1 or anti-topoI. Antigen-antibody complexes were visualized by enhanced chemiluminescence (ECL detection system, GE, Piscataway, N.J.).

topoI [2] = molecular target: T2, topoI (Homo sapiens, UniProt P11387); experiment: topoI down-regulation in BRCA1-silenced cells; format: cell-based; settings: BRCA1-silenced Hela cells
T2 construct: endogenous in cells
T2 sequence (P11387 1-765): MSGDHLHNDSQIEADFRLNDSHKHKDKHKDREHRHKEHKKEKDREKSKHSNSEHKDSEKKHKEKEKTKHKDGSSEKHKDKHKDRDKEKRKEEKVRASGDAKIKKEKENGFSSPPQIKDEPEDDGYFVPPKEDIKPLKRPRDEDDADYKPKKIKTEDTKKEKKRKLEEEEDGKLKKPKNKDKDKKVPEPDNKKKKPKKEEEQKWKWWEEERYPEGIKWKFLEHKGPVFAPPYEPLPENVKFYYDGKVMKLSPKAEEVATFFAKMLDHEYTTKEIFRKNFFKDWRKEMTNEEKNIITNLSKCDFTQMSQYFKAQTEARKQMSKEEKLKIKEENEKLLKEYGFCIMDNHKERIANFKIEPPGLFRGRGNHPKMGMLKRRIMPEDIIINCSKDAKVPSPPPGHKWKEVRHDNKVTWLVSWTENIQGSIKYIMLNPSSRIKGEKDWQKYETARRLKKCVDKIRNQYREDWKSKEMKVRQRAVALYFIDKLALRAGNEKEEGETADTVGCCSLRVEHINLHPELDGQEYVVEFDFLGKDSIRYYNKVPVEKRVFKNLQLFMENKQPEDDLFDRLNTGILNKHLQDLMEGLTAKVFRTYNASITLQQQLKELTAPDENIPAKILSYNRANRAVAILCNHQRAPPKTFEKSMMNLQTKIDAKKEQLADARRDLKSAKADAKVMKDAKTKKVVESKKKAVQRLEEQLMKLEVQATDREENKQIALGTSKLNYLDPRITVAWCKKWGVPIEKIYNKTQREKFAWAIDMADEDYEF

GFP-topoI and BRCA1 = experiment: co-immunostaining of GFP-topoI and BRCA1 after CPT treatment; format: cell-based; settings: in response to treatment with CPT
DNA-PK -/- cells = experiment: cell death of DNA-PK -/- and DNA-PK +/+ cells in response to CPT; format: cell-based, Mouse; settings: DNA-PK -/- cells compared to DNA-PK +/+ cells, in response to CPT (FIG. 8C)
Experimental: as §1, §2

leukemia L-1210 = settings: experimentally transplanted leukemia L-1210 in mice; cited from earlier work
Walker 256 tumor = settings: experimentally transplanted Walker 256 tumor in rats; cited from earlier work
[3] = system: biosynthesis of nucleic acids; settings: cited from earlier work
DNA-PK = molecular target: T3, DNA-PK (Homo sapiens, UniProt P78527); experiment: CPT induced topoI downregulation in HeLa cells with or without DNA-PK inhibitor (anti-topoI immunoblot); format: cell-based; settings: CPT treatment plus DNA-PK inhibitor (FIG. 9)
T3 construct: endogenous in cells; host or cells: HeLa
Experimental: Protein levels were determined by immuno blot analysis of cell lysate with anti-β actin.

For `CC[C@@]1(O)C(=O)OCc2c1cc1n(c2=O)Cc2cc3c(CN(C)C)c(O)ccc3nc2-1` [Topotecan], the “inhibition of HIV-1 infections” value (HIV-1) is given as “inhibit both acute and chronic HIV-1 infections”.
For `CC[C@@]1(O)C(=O)OCc2c1cc1n(c2=O)Cc2cc3ccccc3nc2-1` [CPT, camptothecin], the “rate of topoI down-regulation in response to CPT” value (topoI [1]; DNA-PK +/+ cells compared with DNA-PK deficient cells) was “significantly higher rate of topoI down-regulation in DNA-PK +/+ cells”, the “degradation of topoI” value (topoI [1]; ScH8 cells (DNA-PK +/+) treated with CPT, six hours) was “complete degradation” and the topoI remained intact (topoI [1]; ScSV3 cells (DNA-PK -/-) treated with CPT, six hours) was “more than 50%”. For the same molecule, the “rate of topoI down-regulation” value (topoI [2]) was “decrease in the rate of topoI down-regulation”, the “localization of GFP-topoI and BRCA1” value (GFP-topoI and BRCA1) was “colocalized in DNA repair foci” and the “percentage of cell death” value (DNA-PK -/- cells) was “higher percentage of cell death”. For the same molecule, the anti-tumor activity (leukemia L-1210) was “potent anti-tumor activity”, the anti-tumor activity (Walker 256 tumor) was “potent anti-tumor activity” and the “inhibitory activity toward the biosynthesis of nucleic acids” value [3] was “strong inhibitory activity”.
With `O=c1cc(N2CCOCC2)oc2c1ccc1ccccc12` [NU7026] the “effect on CPT induced topoI downregulation by UPP” value (DNA-PK) was “obliterates CTP induced topoI downregulation”.
